Assay results as given in US7105635B2, “Cyclic beta-sheet peptides useful as apoptotic/cytotoxic cancer agents” (The University of Toledo, priority 2002, dated 2006).
“Also recorded” adds a separate entry of the source. Where two headings read alike, the source gives them in different places. Positions of bridges follow the written chain, without caps; N, C: chain ends. Residues, ends and D or L forms follow the SMILES beside them. No end group written: not given here. *: point of attachment. Biotin = O=C1N[C@H]2[C@H](CS[C@H]2CCCCC(=O)*)N1

What was measured:
CEM cells [1] = experiment: cell permeability to ethidium bromide / propidium iodide, CEM cells; assay type: cell-based, human; conditions: for cell permeability to ethidium bromide or propidium iodide: CEM cells
Experimental: FIG. 11 is a graph showing changes in cell permeability to ethidium bromide following incubation with L1AD3 or with native CTX. CEM cells (10^6/ml) were incubated in quartz cuvets in a Shimidzu fluorescence spectrophotometer with 1 μg/ml ethidium bromide. Either CTX at a final concentration of 1.6 μM or L1AD3 at a final concentration of 40 μM was added, and readings were taken at 5-minute intervals, with excitation at 526 nm and emission measured at 608 nm.
(§1) Flow cytometry using fluorescent Annexin-V distinguishes cells with externalized phosphatidyl serine. As long as the cell's plasma membrane remains intact, fluorescent dyes such as ethidium bromide or propidium iodide are excluded. A 40 μM concentration of L1AD3 caused approximately 93% of CEM cells to become Annexin-V-positive within 2.5 hours, which is unusually short for signs of apoptosis to occur. Camptothecin, a cancer chemotherapeutic agent administered in control experiments at 20 μM, caused only 33% of the cells to appear apoptotic.
Since whole CTX can rapidly permeabilize leukemic T-lymphocytes, separate experiments using a fluorescence spectrophotometer were applied to examine changes in plasma membrane permeability to ethidium bromide following exposure of CEM cells either to L1AD3 or to CTX.

CEM cells [2] = experiment: Annexin-V-FITC flow cytometry of phosphatidyl serine exposure (apoptosis), CEM cells; assay type: cell-based, human; conditions: 20 μM, control experiments
Experimental: FIGS. 10a–d are graphs showing comparisons of phosphatidyl serine exposure on the outer surface of CEM cells following a 2.5-hour incubation with or without 40 μM cyclized L1AD3. After incubation, cells were washed twice with cold PBS prior to adding FITC-conjugated Annexin-V. Flow cytometry using a B-D FACSCalibur was performed, and 10,000 cells were analyzed using the B-D CellQuest program. Individual cells are represented in the dot plots on the left (FIGS. 10a and 10c), and histograms of the same data are on the right (FIGS. 10b and d). Whereas untreated tumor cells show less than 6% spontaneous apoptosis (FIG. 10c, lower left quadrant), 93% of cells treated with L1AD3 undergo apoptosis after 2.5 hours (FIG. 10d, lower right quadrant).
as §1, with “apoptotic. […]” for “apoptotic.”

normal human cells = experiment: permeabilization of normal human cells (propidium iodide, ethidium bromide, trypan blue); assay type: cell-based; conditions: ethidium bromide or trypan blue
Excerpt: (§2) The L1AD3 peptide composition, Seq. […] It is believed that there is an absence of the L1AD3 protein receptor on the surface of normal human white blood cells, whereas the L1AD3 protein receptor target is found in the surface of leukemic T-cells.

CEM cells [3] = experiment: [3H]-thymidine incorporation into DNA of CEM cells; assay type: cell-based, human; conditions: for EC50: CEM cells, FIG. 8, read-out: EC50, inhibition of thymidine incorporation into DNA
Experimental: FIG. 8 is a graph showing percent inhibition of thymidine incorporation as a function of peptide concentration. Each well of a microtiter plate received 200,000 CEM cells in log phase of growth, suspended in 50 μl complete medium. The same volume of diluted peptide, either linear or cyclized, was added to achieve the final concentrations shown. After a 1 -hour incubation at 37 degrees C., 1 μCi of [^3H]-thymidine in 25 μl medium was added, and the plates were incubated another 3 hours prior to harvesting. Control cells were incubated without either peptide, but with the same volume of medium.
The peptide called L1AD3, Seq. ID No. 1, prevents the proliferation of cancerous human T-lymphocytes (CEM cell line) by inhibiting incorporation of thymidine into DNA.
(§3) The L1AD3 peptide stops tumor cell division in both Jurkat and CEM cells with an EC50 of approximately 5 μM, as shown in FIG. 8. This is indicated by the inhibition of thymidine incorporation into DNA. […] In contrast to CTX, which rapidly depolarized skeletal muscle (Dufton and Hider, 1991), and which at 1 μM concentrations causes cessation of beating of embryonic chicken heart cells within 5–10 seconds, the L1AD3 peptide at 40 μM concentrations has no effect upon the beating of heart cells over 2 hours of observation. Therefore, it is believed that the L1AD3 peptide, along with the other seven peptides, is not harmful to the heart, in contrast to native CTX.

[4] = tested on: normal human peripheral white blood cells (PBL's); experiment: Annexin-V binding / phosphatidyl serine externalization, normal human white blood cells; assay type: cell-based
Jurkat cells = experiment: thymidine incorporation into DNA of Jurkat cells; assay type: cell-based, human; conditions: read-out: EC50, inhibition of thymidine incorporation into DNA
Experimental: as §3

[5] = tested on: embryonic chicken heart cells; experiment: beating of heart cells; assay type: cell-based; conditions: for time to cessation of beating of heart cells: 1 μM
Experimental: as §2, §3

CEM cells [6] = tested on: CEM cells
CEM cells [7] = experiment: biotin-avidin sorbant binding assay, adherent CEM cells; design: species or system human; conditions: for binding after pretreatment of cells with trypsin: solid-phase assay
Experimental: CEM cells were held on the surface of 96-well plates previously coated with anti-human MHC-1 antibody (anti-HLA-A,B,C). After plates containing adherent cells were blocked with bovine albumin and washed with PBS, biotinylated L1AD3, either alone (upper trace) or in a 1:1 ratio with non-biotinylated L1AD3 (lower trace), was added to triplicate wells to achieve the indicated final concentrations. After a 1-hour incubation at 37 degrees, plates were washed three times with PBS, and avidin-HRP was added. Enzyme substrate (ABTS) was added, and color development at 415 nm was monitored using an ELISA plate reader with printed output.
The lower two traces in the figure were developed as described above for FIG. 12, except that the target cells were human PBL's that had been isolated about 4 hours before the assay. […] In this case, 0.0125% trypsin was incubated with adherent cells for 10 min, followed by three washes and subsequent addition of soybean trypsin inhibitor.
(§4) A biotin-avidin sorbant assay, similar to an ELISA procedure was performed to measure binding. In this assay, horseradish peroxidase-conjugated avidin was employed rather than an enzyme-linked second antibody. Mouse anti-human MHC-1 (anti HLA-A,-B,-C) antibody was used to hold CEM or normal human cells to the surface of 96-well microtiter plates.
(§5) In order to investigate the nature of the binding site for L1AD3 on tumor cells, trypsin was added to the cells and subsequently quenched by adding enzyme inhibitor prior to measurements of binding, using biotinylated peptide in either the solid-phase or the fluorescent assay described above.

CEM cells [8] = experiment: luciferin/luciferase bioluminescence assay of total ATP in CEM cells; assay type: cell-based, human
Experimental: FIG. 9 is a graph showing the amounts of total ATP present in cell lysates following incubation of CEM cells with peptide analogs. Cyclized peptides were added at double their final concentration, which was 20 μM, to triplicate wells of a black 96-well reaction plate. CEM cells (50,000 per well) were added in the same volume, and the plate was incubated 30 minutes at 37 degrees. Lysis buffer (Sigma) was added, followed by luciferin/luciferase assay buffer (Molecular Probes). The plate was sealed with a clear plastic film and read using a Packard Top-Count reader. Cells with medium only had ATP levels of 1073±160 in arbitrary luminescence units. Peptide analogs are identified by single amino acid modifications.
Changes in cellular energy levels can contribute to the process of cytotoxicity. ATP was measured using a 96-well luciferin/luciferase bioluminescence assay system and found a 60% reduction in ATP after 30 minutes' incubation of CEM cells with 20 μM L1AD3, as shown in FIG. 9. While somewhat large, this reduction of ATP is consistent with apoptosis, inasmuch as necrosis tends to occur when ATP levels drop to below 30% of control.

[9] = tested on: normal human peripheral blood lymphocytes; experiment: biotin-avidin sorbant binding assay, normal human PBL's; conditions: with or without non-biotinylated L1AD3
Experimental: FIG. 13 is a graph showing inhibition of specific binding of biotinylated L1AD3 to normal human peripheral blood lymphocytes by non-biotinylated L1AD3, and abolition of binding by pretreatment of CEM cells with trypsin. The lower two traces in the figure were developed as described above for FIG. 12, except that the target cells were human PBL's that had been isolated about 4 hours before the assay. […] In this case, 0.0125% trypsin was incubated with adherent cells for 10 min, followed by three washes and subsequent addition of soybean trypsin inhibitor.
as §4

CEM cells [10] = tested on: CEM cells; remark: listed apart in the source
Experimental: To investigate peptide binding to cell surfaces, the peptide was modified by N-terminal biotinylation. […] A biotin-avidin sorbant assay, similar to an ELISA procedure was performed to measure binding. In this assay, horseradish peroxidase-conjugated avidin was employed rather than an enzyme-linked second antibody. Mouse anti-human MHC-1 (anti HLA-A,-B,-C) antibody was used to hold CEM or normal human cells to the surface of 96-well microtiter plates.
as §5

[11] = tested on: human leukemic T-lymphocytes; conditions: previous comparisons of native toxins (Stevens-Truss & Hinman, 1997); cited from earlier work

CC[C@@]1(O)C(=O)OCc2c1cc1n(c2=O)Cc2cc3ccccc3nc2-1 [Camptothecin]
cell permeability to ethidium bromide or propidium iodide (CEM cells [1]): neither L1AD3 nor camptothecin caused increases in cell permeability | cells apoptotic (Annexin-V) (CEM cells [2]): 33% | cells apoptotic (Annexin-V) (CEM cells [2]; listed as camptothecin): 23%

CC(C)C[C@@H]1NC(=O)[C@H](CCCCN)NC(=O)[C@H](CC(N)=O)NC(=O)[C@@H](NC(=O)[C@H](CCCCN)NC(=O)[C@@H](N)CC(C)C)CSSC[C@@H](C(=O)O)NC(=O)[C@H]([C@@H](C)O)NC(=O)[C@H](CCCCN)NC(=O)[C@H](Cc2ccc(O)cc2)NC(=O)[C@H](Cc2ccccc2)NC(=O)[C@H](CC(C)C)NC(=O)[C@@H]2CCCN2C(=O)[C@H](C(C)C)NC1=O [L1AD3, Leu-Lys-Cys-Asn-Lys-Leu-Val-Pro-Leu-Phe-Tyr-Lys-Thr-Cys] (H-LKCNKLVPLFYKTC-OH; disulfide 3-14)
permeabilizing effect on normal human cells (normal human cells): no permeabilizing effect | EC50 (CEM cells [3]): ~5 µM | externalization of phosphatidyl serine / Annexin-V binding in normal human white blood cells ([4]; 40 μM peptide (same concentration as CEM test)): did not induce externalization of phosphatidyl serine; also recorded: not affected above background levels | Annexin-V labelling of T-cells, B-cells and macrophages among PBL's ([4]; 1-hour incubation, double-labeled with anti CD-3, CD-19, CD-14): all were within background levels | EC50 (Jurkat cells): ~5 µM | effect upon the beating of heart cells ([5]; 40 μM, 2 hours): no effect

CC(C)C[C@H](NC(=O)[C@H](CCCCN)NC(=O)[C@H](CC(N)=O)NC(=O)[C@H](CS)NC(=O)[C@H](CCCCN)NC(=O)[C@@H](N)CC(C)C)C(=O)N[C@H](C(=O)N1CCC[C@H]1C(=O)N[C@@H](CC(C)C)C(=O)N[C@@H](Cc1ccccc1)C(=O)N[C@@H](Cc1ccc(O)cc1)C(=O)N[C@@H](CCCCN)C(=O)N[C@H](C(=O)N[C@@H](CS)C(=O)O)[C@@H](C)O)C(C)C [Linear L1AD3] (H-LKCNKLVPLFYKTC-OH; N-terminus and C-terminus assumed)
EC50 of linear peptide relative to cyclized counterpart (CEM cells [3]): more than eight times | EC50 (CEM cells [3]): ~43 µM

Biotin-LKCNKLVPLFYKTC (cysteine pairing not given here) [biotinylated L1AD3]
other activities after biotinylation (CEM cells [6]): significantly diminished | binding to human cancer cells (CEM cells [7]): bound human cancer cells; also recorded: preserves its ability to bind cancer cells | Kd (CEM cells [7]; saturable binding, read-out: apparent KD of binding to CEM cells): ~6 µM | binding after pretreatment of cells with trypsin (CEM cells [7]): abolished | binding after pretreatment of cells with trypsin (CEM cells [7]; listed as biotinylated peptide): abolished binding | ability to reduce ATP levels in cancer cells (CEM cells [8]): retains its ability to reduce ATP levels | binding to normal human white blood cells / PBL's [9]: did not bind appreciably | fluorescence increase over cells not incubated with biotinylated peptide (CEM cells [10]; avidin-FITC, CEM cells in suspension): 48% | binding after pretreatment of cells with trypsin (CEM cells [10]; fluorescent assay): abolished binding

LKCNKLVPLFYKTCPAGKNLCYKMFMVATPKVPVKRGCIDVCPKSSLL VKYVCCNTDRCN (LKCNKLVPLFYKTCPAGKNLCYKMFMVATPKVPVKRGCIDVCPKSSLLVKYVCCNTDRCN; Naja naja atra) [CTX, parent 60-amino acid cytotoxin purified from the Taiwan cobra, Naja naja atra]
toxicity toward human leukemic T-lymphocytes [11]: highly toxic | time until cells began to admit ethidium bromide (CEM cells [1]; 1.6 μM, fluorescence spectrophotometer): ≤ 15 min | time to induced permeability to propidium iodide (CEM cells [1]; 10 μM, fluorescence microscopy): ≤ 30 s | cell permeability to ethidium bromide or propidium iodide (CEM cells [1]): rapidly became permeable | time to cessation of beating of heart cells [5]: 5 to 10 s | time to cessation of beating of heart cells ([5]; listed as “parent” cardiotoxin): 10 to 30 s
